Measurements: patent US20210255193A1, “LYSINE REACTIVE PROBES AND USES THEREOF” (The Scripps Research Institute, priority 2017, published 2021)

The compounds below were run against T1, HK1 Hexokinase-1 (Homo sapiens, UniProt P19367) (assay: competitive isoTOP-ABPP). Details: 50 uM_231_sol_in vitro.
T1 construct: isoTOP-ABPP experiments performed in cell lysates (in vitro); endogenous in cells; host or cells: soluble proteome of human cancer cell lines (MDA-MB-231; Ramos and Jurkat also prepared)
T1 sequence (P19367 1-917): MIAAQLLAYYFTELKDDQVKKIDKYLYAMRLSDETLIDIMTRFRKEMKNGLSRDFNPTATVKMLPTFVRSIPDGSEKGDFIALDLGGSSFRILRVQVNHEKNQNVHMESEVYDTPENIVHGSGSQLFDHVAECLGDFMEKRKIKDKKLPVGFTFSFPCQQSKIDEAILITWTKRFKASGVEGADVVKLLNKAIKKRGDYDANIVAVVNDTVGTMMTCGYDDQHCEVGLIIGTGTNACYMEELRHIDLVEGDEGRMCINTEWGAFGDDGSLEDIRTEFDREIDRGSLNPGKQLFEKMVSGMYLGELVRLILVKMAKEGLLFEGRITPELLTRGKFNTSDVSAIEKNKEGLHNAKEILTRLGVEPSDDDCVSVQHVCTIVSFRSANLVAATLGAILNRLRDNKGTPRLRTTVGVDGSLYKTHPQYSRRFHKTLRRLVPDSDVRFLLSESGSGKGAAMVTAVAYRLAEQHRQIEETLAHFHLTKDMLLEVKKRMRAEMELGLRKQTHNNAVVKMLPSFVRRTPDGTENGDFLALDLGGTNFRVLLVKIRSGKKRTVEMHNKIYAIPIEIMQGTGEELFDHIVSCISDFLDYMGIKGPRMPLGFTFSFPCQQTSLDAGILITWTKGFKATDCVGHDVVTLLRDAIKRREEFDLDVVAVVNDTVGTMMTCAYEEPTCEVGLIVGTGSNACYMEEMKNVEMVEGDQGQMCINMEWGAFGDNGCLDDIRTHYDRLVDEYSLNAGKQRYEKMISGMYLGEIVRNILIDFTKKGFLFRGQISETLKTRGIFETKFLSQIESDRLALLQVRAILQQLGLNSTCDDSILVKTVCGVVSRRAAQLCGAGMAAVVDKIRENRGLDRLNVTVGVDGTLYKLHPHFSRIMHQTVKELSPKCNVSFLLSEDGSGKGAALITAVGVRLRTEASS
Format: binding
Method: In vitro covalent fragment treatment for isoTOP-ABPP. All compounds were made up as solutions in DMSO (100×) and were used at a final concentration of 50 μM for activated esters and 100 μM for guanidinylating agents. For each profiling sample, 0.5 ml of lysate was treated with 5 μl of the 100× compound stock solution or 5 μl of DMSO. Samples were treated with activated esters for
STP-alkyne labeling and click chemistry. For concentration-dependent reactivity measurements by isoTOP-ABPP, 0.5 ml proteome aliquots were treated at ambient temperature with 1 mM STP-alkyne 1 (5 μl of 100 mM stock in DMSO) and 0.1 mM STP alkyne 1 (5 μl of 10 mM stock in DMSO), respectively. For competitive isoTOP-ABPP, after in vitro fragment treatment (detailed above), the samples were labeled for 1 h at ambient temperature with 0.1 mM STP-alkyne 1 (5 μl of 10 mM stock in DMSO). Samples were conjugated by copper-mediated azide-alkyne cycloaddition (CuAAC) to either the light (1 mM STP-alkyne or fragment treated) or heavy (0.1 mM STP-alkyne or DMSO treated) TEV tags (10 μl of 5 mM stocks in DMSO, final concentration=100 μM) using tris(2-carboxyethyl)phosphine hydrochloride
R value calculation and processing. The ratios of light and heavy MS1 peaks for each unique peptide were quantified with a CIMAGE software using default parameters (3 MS1 acquisitions per peak and signal to noise threshold set to 2.5). For reactivity measurements by isoTOP-ABPP, the R value was calculated from the ratio of MS1 peak areas, comparing the 1 mM STP alkyne sample (light TEV tag) with the 0.1 mM STP alkyne sample (heavy TEV tag). For competitive isoTOP-ABPP, the R value was calculated from the ratio of MS1 peak areas, comparing the DMSO treated sample (heavy TEV tag) with the compound treated sample (light TEV tag). […] Ratios for unique peptide entries are calculated for each experiment; overlapping peptides with the same modified lysine (for example, different charge states, MudPIT chromatographic steps or tryptic termini) are grouped together and the median ratio is reported as the final ratio (R). The peptide ratios reported by CIMAGE were further filtered to ensure the removal or correction of low-quality ratios in each individual data set. The quality filters applied were the following: removal of half tryptic peptides; for ratios with high standard deviations from the median (90% of the median or above) the lowest ratio was taken instead of the median; removal of peptides with R=20 and only a single MS2 event triggered during the elution of the parent ion; manual annotation of all the peptides with ratios of 20, removing any peptides with low quality elution profiles that remained after the previous curation steps (only done for competitive isoTOP-ABPP).
Cross-data processing for fragment screening. For compound treated samples, biological replicates of the same condition were averaged, if the standard deviation was below 60% of the mean; otherwise, for lysines with at least one R value <4 for a particular compound, the lowest value of the ratio set was taken. For lysines, where all R values for a particular compound were ≥4, the average was reported. For peptides containing several possible modified lysines, the lysine with the highest number of quantification events was used for analysis and the remaining, redundant peptides were reported as alternative modification sites. Peptides included in the aggregate dataset (those used for further bioinformatics and statistical analyses) were required to have been quantified in 2 experiments for competitive isoTOP-ABPP. Lysines were categorized as liganded, if they had at least one ratio R≥4 (hit fragments). For liganded lysines with R=20 for all liganding events, lysines were required to have been quantified with R=20 in two separate experiments and were further required to have been quantified with R<20 in one additional experiment.
For O=C(ON1C(=O)CCC1=O)c1cc(C(F)(F)F)cc(C(F)(F)F)c1 [fragment 46, 3,5-Bis(trifluoromethyl)benzoic acid NHS ester], the “isoTOP-ABPP ratio, lysine P19367_K510” value was 1.0.
With O=C(Oc1c(F)c(F)c(C(F)(F)F)c(F)c1F)c1cc(C(F)(F)F)cc(C(F)(F)F)c1 [fragment 47, 2,3,5,6-Tetrafluoro-4-(trifluoromethyl)phenyl 3,5-bis(trifluoromethyl)benzoate] the “isoTOP-ABPP ratio, lysine P19367_K510” value was 0.9.
O=C(Oc1c(F)c(F)cc(F)c1F)c1cc(C(F)(F)F)cc(C(F)(F)F)c1 [fragment 48, 2,3,5,6-Tetrafluorophenyl 3,5-bis(trifluoromethyl)benzoate] was tested, and the “isoTOP-ABPP ratio, lysine P19367_K510” value was 0.8.
With NC(=O)c1cc(C(F)(F)F)cc(C(F)(F)F)c1 [fragment 51, reference compound] the “isoTOP-ABPP ratio, lysine P19367_K510” value was 1.0.

Same assay, conditions: 100 uM_231_sol_in vitro
With COC(=O)NC(=NC(=O)OCC1c2ccccc2-c2ccccc21)n1cccn1 [fragment 49, N-Methoxycarbonyl-N′-9-fluorenylmethoxycarbonyl-pyrazole-1-carboxamidine] the “isoTOP-ABPP ratio, lysine P19367_K510” value was 1.1.
With CC(C)(C)OC(=O)N=C(NC(=O)OC(C)(C)C)n1cccn1 [fragment 50, reference compound] the “isoTOP-ABPP ratio, lysine P19367_K510” value was 1.0.
